T/C data for one compound are collected here from ChEMBL document CHEMBL1158645, “Antitumor agents 37. The isolation and structural elucidation of isohelenol, a new antileukemic sesquiterpene lactone, and isohelenalin from Helenium microcephalum” (1979).

What is called T/C is the result in the treated group divided by that in the control group, in per cent.

Molecules are shown by their SMILES.

The assay relates to P388. As to the kind of experiment: In vivo antitumor activity against mouse P388 lymphocytic leukemia at 12.5 mg/kg. Type of assay: functional.

For the compound `C[C@@H]1C[C@H]2OC(=O)C(CO)=C2[C@H](O)[C@]2(C)C(=O)C=C[C@@H]12` [ISOHELENOL], the T/C was 133%.
